The values below come from US8334299B2, “β-carboline for the treatment of neurodegenerative diseases” (Ellneuroxx, Ltd., priority 2007, dated 2012).

The test system of experiment [1] is midbrain cells in culture. Put plainly: ATP content of midbrain culture. In kind it is cell-based, mice. The following applies: 50 μM, 48 hours. The procedure:
FIG. 4c ATP concentration (ATP content) after incubation with 50 μM 9-methyl-β-carboline (9-Me-BV) for 48 hours 10 DIV-12 DIV.
In 48 hours about 20% of the cells in culture died. In cultures with a 9-Alkyl-β-carboline only about 10% of the cells died under the same conditions (FIG. 4b). Thus, the findings are in line with the LDH findings. ATP provides the cell with energy. […] The enzyme caspase-3 is an indicator for apoptosis. After 24 hours, the enzyme activity was reduced which hints at a reduction of apoptotic processes, after 48 hours, however, it was increased (FIG. 4d). The last finding hints at a switch of culture cells from reduced necrosis to apoptosis, thus a more precise regulation of cell death.

For experiment [2], the system named is dopaminergic neurons. Briefly: Dopamine concentration in midbrain culture. In kind it is cell-based, mice. The following applies: 50 μM, 48 hours, 10 DIV-12 DIV. The procedure: FIG. 2a Dopamine concentration (dopamine content) after incubation with 50 μM 9-methyl-β-carboline for 48 hours from 10 DIV-12 DIV.
(§1) To obtain further hints that the number of dopaminergic neurons really has increased, the dopamine concentration was measured. […] Another characteristic and specificity of dopaminergic neurons is the transport of dopamine into the neurons. Dopamine cannot permeate the outer membrane of neurons because of its hydrophilic character. It must be actively and energy-dependently transported through the DAT mechanism.

Experiment [3] deals with neurons (total). Put plainly: Total number of neurons in midbrain culture (different dyes). In kind it is cell-based, mice. The note with it: 50 μM, 48 hours; not as much as dopaminergic neurons. The procedure:
FIG. 3 Percentage of neurons (total) after incubation with 50 μM 9-methyl-β-carboline for 48 hours from 10 DIV-12 DIV.
9-methyl-β-carboline was used to show whether only dopaminergic neurons were influenced, or other neurons or glial cells as well. This question can be answered by the use of different dyes.

Experiment [4] deals with dopamine concentration in the striatum. Briefly: Chronic MPP+ infusion model of Parkinson's disease, dopamine concentration in the striatum. The format is in vivo, rat. The note with it: rat. An excerpt: In the diagram the dopamine (DA) levels of the left and right striatum of the single rats are indicated.
(§2) To investigate Parkinson's disease acute in vivo models are used for years although chronic models would be a better model for the disease. Another disadvantage of the acute models is that ca. 40% of the animals die from the application of the neurotoxin. Therefore, we have chosen a chronic model in which comparably very low doses of neurotoxin 1-methyl-4-phenylpyridinium (MPP^+) were infused for 28 days into the left lateral ventricle of the rat brain. The substance was continuously applied through osmotic minipumps. Thereby, casualties were completely avoided. After four weeks, either solvent or equimolar amounts of the sample substance, namely neuroprotective betacarboline, resp. 9-alkyl-betacarboline was infused for two weeks via the same catheter. In a preliminary study for dose-finding the MPP^+ dose which leads to a reduction by 40% of the dopamine concentration in the striatum was determined. The dopamine concentration in the striatum is a characteristic marker for Parkinson's disease in which a degeneration of dopaminergic neurons occurs.
The compounds A to L were tested as described in example 8. The test results of the compounds A to L are indicated in the following table in comparison to 9-methyl-β-carboline.

Experiment [5] deals with dopaminergic neurons. Put plainly: Primary midbrain culture, tyrosin hydroxylase staining and counting of dopaminergic neurons. The format is cell-based, mice. Here is the method: The experiments were carried out with the human neuroblastoma cell line (SH-SY5Y-cells) and with a cell culture of primary nerve cells from the mice embryo midbrain. […] Moreover, the mentioned compounds induce in the primary culture from the mice embryo midbrain the generation of new, differentiated and functional dopaminergic neurons.
To this aim midbrain cultures were prepared and kept for 10-12 days (DIV=Days in vitro) in an appropriate medium to accustom to in vitro conditions. Then 9-methyl-β-carboline was added in increasing concentrations and it was waited for 48 hours. Dopaminergic neurons were identified by staining with tyrosin hydroxylase. This enzyme occurs only in dopaminergic midbrain neurons. The number of dopaminergic neurons can be counted reliably with this method. In addition, hints can be obtained whether the dopaminergic neurons are mature or if they are precursor cells. The mature cells have characteristic extensions which also contain tyrosin hydroxylase.

The subject of experiment [6] is brain-derived neurotrophic factor (BDNF). Put plainly: PCR superarray of RNA from the striata of MPP+ rats: BDNF. In kind it is in vivo, rat.
From the text: as §2
An explanation for the effect of the betacarboline was found in the tests of the RNA from the striata of these rats through the PCR superarray method. Accordingly, the betacarboline activates the generation of neurotrophins, thus proteins produced naturally in the body, which are responsible for the growth and differentiation of neurons. […]

Experiment [7] has as its system dopaminergic neurons. Briefly: 3H-dopamine uptake (dopamine transport capacity) in midbrain culture. The format is cell-based, mice. The following applies: 50 μM, 48 hours, 10 DIV-12 DIV. Here is the method:
FIG. 2b Dopamine transport capacity of dopaminergic neurons after 48 hours. ^3H-dopamine uptake after incubation with 50 μM 9-Me-BC for 48 hours from 10 DIV-12 DIV.
as §1

For experiment [8], the system named is genes involved in neuronal differentiation, inflammation, apoptosis. Briefly: Microarray analysis of gene transcription in midbrain cultures. The format is cell-based, mice. The following applies: vs control cultures. An excerpt: These findings were further sustained by so-called microarray methods. The analyses confirm that the transcription of genes involved in neuronal differentiation is increased.

For experiment [9], the system named is midbrain cells in culture. Briefly: Dead (necrotic) cells by propidium iodide staining of cell nuclei. In kind it is cell-based, mice. The following applies: 48 hours, 50 μM; control about 20%. Here is the method: FIG. 4b Percentage of dead (necrotic) cells after incubation with 50 μM 9-methyl-β-carboline for 48 hours 10 DIV-12 DIV.
Dying cells release the enzyme lactate dehydrogenase (LDH) into the medium. Since cells always die in culture always a small LDH concentration can be detected in the medium as an indirect measure for the vitality of the culture. Compared to control conditions the LDH concentration decreased after incubation with 9-methyl-β-carboline in a dose-dependent manner with a concentration up to 50 μM (FIG. 4a). The number of dead cells can be quantified by staining the cell nuclei with propidium iodide.

`Cn1c2ccccc2c2ccncc21` [9-methyl-β-carboline]: the “concentration of ATP” value in experiment [1] is “increased”. For the same compound, the “dopamine concentration (dopamine content)” value in experiment [2] is listed as “slightly increased without reaching significance level”. The “total number of neurons” value in experiment [3] is on record as “increases”. Also, the “dopamine concentration in the left striatum” value in [4] (4 weeks MPP+ then 2 weeks compound (equimolar, 0.105 mg/kg/day) into left ventricle) is reported as “normalized”. Moreover, the “effect in an established model of Parkinson's disease” value in experiment [4] (chronic MPP+ model) was “neuroprotective effect”. Further, in experiment [5] (50 μM 9-Me-BC with DAT inhibitor GBR12909, 48 hours), the “increase in dopaminergic neurons after inactivation of the dopamine transporter DAT” value is on record as “does not occur”. The “cellular extensions and branching of dopaminergic neurons” value in [5] (50 μM, 48 hours, vs control without compound) was “significantly more cellular extensions”. Moreover, the “number of dopaminergic neurons” value in experiment [5] (10-200 μM, 48 hours, 10 DIV-12 DIV, increase up to ca. 100 μM) is “increased dose-dependently”. Moreover, in experiment [6] (left striatum), the “increase of BDNF compared to rats infused solvent only for six weeks” value is 4.9 times. In experiment [6] (right striatum), the “increase of BDNF compared to rats infused solvent only for six weeks” value was determined as 8.5 times. The “neuronal transport capacity of dopamine (3H-dopamine uptake)” value in [7] is listed as “increases”. Besides, in experiment [8], the “transcription of genes involved in apoptosis” value is recorded as “transcribed less”, the “transcription of genes involved in neuronal differentiation” value was “increased” and the “transcription of genes which activate inflammation processes” value was “transcribed less”. In addition, in experiment [9], the “cells in culture that died” value is listed as “about 10%”.
